{"source": "patent US9611265B2", "about": "“Tropomyosin-related kinase (TRK) inhibitors” (Genzyme Corporation, priority 2013, dated 2017)", "key": {"[1]": {"test_system": "Monosodium Lodoacetate Induced Osteoarthritis", "assay": "Monosodium Iodoacetate Induced Osteoarthritis, weight bearing", "format": "in vivo, Male Wistar rats", "details": "for comparison with MIA/LRS at day 35: day 35, p<0.05", "text": "Male Wistar rats were acclimated to the testing facility for 5 days. The rats were individually housed in micro-isolator shoe-box polycarbonate cages with cob bedding and water bottles. Dry pelleted food of known composition and nutritional components was provided ad libitum Animals were randomized by treatment type using an online random number generator. Each treatment group was assigned a number, entered into the random number generator, recorded then translated back to the associated treatment. All injections were given in the left leg unless the treatment indicated “Contralateral” in which case the injection was given in the right leg. Both legs were shaved on all animals at the time of the treatment injections to blind the test administrator. The rats were weighed the day prior to injection with monosodium iodoacetate (MIA), the agent used to induce osteoarthritis in the animals. The day of injection, rats from groups 2-8 received a subcutaneous (SC) dose of buprenorphine at least one hour prior to induction. […] Naïve animals were then placed in recovery. All other animals received an injection of MIA. In animals receiving MIA, the hind leg was flexed and an injection of MIA (25 μL) was injected into the intra-articular space using a 27 gauge ½ inch needle. Standard postoperative care was performed (twice daily for 48 hours). On Day 8 the test article was administered as described above. On Days −1, 7, 14, 21, 28, and 35 post-induction, weight bearing was assessed. A weight bearing scale was utilized using a plexiglass chamber to assess the amount of weight distributed in each hind limb. The animals were acclimated to the chamber for at least 5 minutes prior to testing and the weight distribution was recorded 5 times. The animals were terminated at day 36. Both stifles were collected from each animal; the skin was removed from the joint and the patella was removed while leaving as much of the fat pad intact with the joint. The stifle was placed in the appropriate cassette with rolled gauze to secure the stifle in the cassette and then placed into 4% Paraformaldehyde. These samples were examined histologically."}, "PGPS Knee Arthritis": {"test_system": "PGPS Knee Arthritis", "assay": "Reactivated Peptidoglycan-Polysaccharide Knee Arthritis", "format": "in vivo, Male Lewis rats", "details": "for gait scores and deficiency, first reactivation: days 1-4", "text": "Male Lewis rats were acclimated to the testing facility for 7 days. The rats were housed in 5 per cage in shoe-box polycarbonate cages with wire tops, wood chip bedding and suspended food and water bottles. On day −21, the male Lewis rats were randomized into treatment groups by body weight. The rats were anesthetized and injected with peptidoglycan-polysaccharide (PGPS) into the right knee to induce PGPS arthritis. Arthritis was reactivated on days 0 and 14 by an IV tail injection of PGPS. […] Gait analysis was performed by applying ink to the ventral surface of the foot and documenting weight bearing during movement across paper. […] Right knees were removed, trimmed of extraneous tissue, and collected into 10% neutral buffered formalin. After two days in the formalin buffer and three days in 10% formic acid decalcifier, the knees were cut into two approximately equal halves in the frontal plane and processed for paraffin embedding and stained with T.Blue. Histological examinations were subsequently performed for bone resorption, inflammation, pannus and cartilage damage. […] Gait scores were analyzed using a Kruskal-Wallis test (non-parametric ANOVA) with Dunn's multiple comparison post-test. Histopathology scores were analyzed using a Kruskal-Wallis test (non-parametric ANOVA) with Dunn's multiple comparison post-test."}, "[2]": {"details": "intra-articular on day -7 (Triamcinolone 0.06 mg; test compound 1 mg)"}, "[3]": {"details": "Triamcinolone 0.06 mg intra-articular"}}}
{"smiles": "COc1ccc(COc2ccc(Cn3c(N)nc4cc(-c5cnn(C)c5)cnc43)cc2OC)cc1", "note": "[Ex. 3-15, 3-(3-Methoxy-4-((4-methoxybenzyl)oxy)benzyl)-6-(1-methyl-1H-pyrazol-4-yl)-3H-imidazo[4,5-b]pyridin-2-amine]", "values": [{"measurement": "weight bearing efficacy", "setting": "[1]; 10 μg Contralateral", "value": "efficacy at 3 and 4 weeks following administration"}, {"measurement": "weight bearing efficacy", "setting": "[1]; 10 μg Ipsilateral, intra-articular on Day 8", "value": "efficacy was observed at 2 through 4 weeks following administration"}, {"measurement": "weight bearing efficacy", "setting": "[1]; 30 μg Contralateral", "value": "efficacy at only the 3 week timepoint"}, {"measurement": "comparison with MIA/LRS at day 35", "setting": "[1]; 30 μg Ipsilateral", "value": "MIA/LRS was significantly worse"}, {"measurement": "weight bearing efficacy", "setting": "[1]; 30 μg Ipsilateral, intra-articular on Day 8", "value": "effective throughout the four weeks following administration"}, {"measurement": "systemic pain relief (weight bearing)", "setting": "[1]; 100 μg Contralateral, 1-4 weeks", "value": "did not show systemic pain relief at any timepoint"}, {"measurement": "comparison with MIA/LRS at day 35", "setting": "[1]; 100 μg Ipsilateral", "value": "MIA/LRS was significantly worse"}, {"measurement": "weight bearing efficacy", "setting": "[1]; 100 μg Ipsilateral, intra-articular on Day 8", "value": "effective throughout the four weeks following administration"}, {"measurement": "body weight results", "setting": "[1]; 10-100 μg intra-articular", "value": "No adverse observations"}, {"measurement": "histopathology of the knee joint", "setting": "[1]; day 36", "value": "no adverse changes"}, {"measurement": "reduction of AUC for scores and deficiency, first reactivation", "setting": "PGPS Knee Arthritis; 1 mg intra-articular", "value": "92-93%"}, {"measurement": "reduction of AUC for scores and deficiency, second reactivation", "setting": "PGPS Knee Arthritis; 1 mg intra-articular", "value": "85-86%"}, {"measurement": "reduction of summed AUC for deficiency", "setting": "PGPS Knee Arthritis; 1 mg intra-articular", "value": 84, "unit": "%"}, {"measurement": "histopathology, reductions in all parameters", "setting": "PGPS Knee Arthritis; day 18, bone resorption, inflammation, pannus, cartilage damage (Triamcinolone 0.06 mg; test compound 1 mg)", "value": "49-94%"}, {"measurement": "knee caliper measurements", "setting": "PGPS Knee Arthritis; [2]", "value": "significantly reduced on day 14"}, {"measurement": "reduction in knee caliper AUC", "setting": "PGPS Knee Arthritis; [2]", "value": "generally unaffected by treatment"}, {"measurement": "gait scores and deficiency, first reactivation", "setting": "PGPS Knee Arthritis; [2]", "value": "significant reductions in gait scores and deficiency throughout the first reactivation"}, {"measurement": "gait scores and deficiency, second reactivation", "setting": "PGPS Knee Arthritis; intra-articular on day -7 (Triamcinolone 0.06 mg; test compound 1 mg), days 15-18", "value": "Scores were significantly reduced throughout the second reactivation, and reductions in deficiency were significant on days 15, 17, and 18"}]}
{"smiles": "C[C@]12C=CC(=O)C=C1CC[C@H]1[C@@H]3C[C@@H](O)[C@](O)(C(=O)CO)[C@@]3(C)C[C@H](O)[C@@]12F", "note": "[Triamcinolone, reference compound]", "values": [{"measurement": "reduction of gait scores and deficiency AUC, each reactivation calculated separately", "setting": "PGPS Knee Arthritis; [3]", "value": "74-99%"}, {"measurement": "reduction of gait scores and deficiency AUC, summed", "setting": "PGPS Knee Arthritis; [3]", "value": "88-92%"}, {"measurement": "knee caliper measurements", "setting": "PGPS Knee Arthritis; [2]", "value": "significantly reduced on days 2, 4, 16, and 18"}, {"measurement": "reduction in knee caliper AUC", "setting": "PGPS Knee Arthritis; [2]", "value": "53-106%"}, {"measurement": "gait scores and deficiency, first reactivation", "setting": "PGPS Knee Arthritis; [2]", "value": "significantly reduced gait scores and deficiency throughout the first reactivation (days 1-4)"}]}
